Source: patent US20070117743A1, “New antitumoral compounds” (priority 2003, published 2007)
Where a SMILES comes first, the peptide text is derived from it. Bridges are numbered along the chain shown (N, C = ends). [ ]: non-standard residue; d: D form. The star is where a group is joined. d(aIle) = CC[C@H](C)[C@@H](N)C(=O)O; d(aThr) = C[C@@H](O)[C@@H](N)C(=O)O; Hexanoyl(5-Me) = CC(C)CCCC(=O)*; Orn = NCCC[C@H](N)C(=O)O; Dhb = C/C=C(\N)C(=O)O

Tests used:
Format in all cases: cell-based, human
DU-145 = experiment: SRB colorimetric assay of cell growth and viability, DU-145; settings: 48 hours exposure
LoVo = experiment: SRB colorimetric assay of cell growth and viability, LoVo; settings: 48 hours exposure; for CC50: read-out: LC50 LOVO
IGROV-1 = experiment: SRB colorimetric assay of cell growth and viability, IGROV-1; settings: 48 hours exposure
IGROV-ET = experiment: SRB colorimetric assay of cell growth and viability, IGROV-ET; settings: 48 hours exposure; for CC50: read-out: LC50 IGROV-ET
A-549 = experiment: SRB colorimetric assay of cell growth and viability, A-549; settings: 48 hours exposure; for GI50: read-out: GI50 A-549; for CC50: read-out: LC50 A-549
LoVo-Dox = experiment: SRB colorimetric assay of cell growth and viability, LoVo-Dox; settings: 48 hours exposure; for CC50: read-out: LC50 LOVO-DOX
Procedure, shortened: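 SRB staining (0.4% wt/vol in 1% acetic acid, 10 min, room temperature) of cells fixed with 50% TCA follows a 48-hour exposure to compound. Plating density is 5×10^3 cells/well, and the OD is taken at 490 nm.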

K-562 = experiment: SRB colorimetric assay of cell growth and viability, K-562; settings: 48 hours exposure; for CC50: read-out: LC50 K-562
HeLa-APL = experiment: SRB colorimetric assay of cell growth and viability, HeLa-APL; settings: 48 hours exposure; for CC50: read-out: LC50 HELA-APL
HT-29 = experiment: SRB colorimetric assay of cell growth and viability, HT-29; settings: 48 hours exposure; for GI50: read-out: GI50 HT-29; for CC50: read-out: LC50 HT-29
PANC-1 = experiment: SRB colorimetric assay of cell growth and viability, PANC-1; settings: 48 hours exposure; for CC50: read-out: LC50 PANC-1
SK-MEL-28 = experiment: SRB colorimetric assay of cell growth and viability, SK-MEL-28; settings: 48 hours exposure; for CC50: read-out: LC50 MEL-28
HeLa = experiment: SRB colorimetric assay of cell growth and viability, HeLa; settings: 48 hours exposure; for CC50: read-out: LC50 HELA

C/C=C1\NC(=O)[C@H](Cc2ccccc2)NC(=O)[C@@H](C(C)C)NC(=O)[C@@H]([C@@H](C)CC)NC(=O)[C@H](NC(=O)[C@H](NC(=O)[C@H](CCCN)NC(=O)[C@H]2CCCN2C(=O)[C@H](NC(=O)[C@@H](NC(=O)[C@@H](NC(=O)[C@@H](C)NC(=O)CCCC(C)C)[C@@H](C)O)C(C)C)C(C)C)[C@@H](C)CC)[C@@H](C)OC(=O)[C@H](C(C)C)NC1=O [Compound 34, [D-Ala^13]-KF]
GI50 (DU-145): 2.21 µM | LC50 (concentration causing 50% net cell kill) (DU-145): 4.79 µM | TGI DU-145 (DU-145): 3.26E−06 Molar | GI50 (LoVo): 0.904 µM | TGI LOVO (LoVo): 1.77E−06 Molar | CC50 (LoVo): 2.98 µM | GI50 (IGROV-1): 1.41 µM | LC50 (concentration causing 50% net cell killing) (IGROV-1): 4.03 µM | TGI IGROV (IGROV-1): 2.38E−06 Molar | GI50 (IGROV-ET): 1.58 µM | TGI IGROV-ET (IGROV-ET): 2.56E−06 Molar | CC50 (IGROV-ET): 4.14 µM | TGI A-549 (A-549): 3.20E−06 Molar | GI50 (A-549): 1.98 µM | CC50 (A-549): 5.17 µM | GI50 (LoVo-Dox): 0.35 µM | TGI LOVO-DOX (LoVo-Dox): 9.73E−07 Molar | CC50 (LoVo-Dox): 2.48 µM | GI50 (K-562): 1.34 µM | TGI K-562 (K-562): 2.66E−06 Molar | CC50 (K-562): 5.25 µM | GI50 (HeLa-APL): 1.59 µM | TGI HELA-APL (HeLa-APL): 2.63E−06 Molar | CC50 (HeLa-APL): 4.34 µM | TGI HT-29 (HT-29): 2.32E−06 Molar | GI50 (HT-29): 1.25 µM | CC50 (HT-29): 4.3 µM | GI50 (PANC-1): 1.28 µM | TGI PANC-1 (PANC-1): 2.58E−06 Molar | CC50 (PANC-1): 5.21 µM | GI50 (SK-MEL-28): 1.81 µM | TGI MEL-28 (SK-MEL-28): 3.01E−06 Molar | CC50 (SK-MEL-28): 5 µM | GI50 (HeLa): 1.46 µM | TGI HELA (HeLa): 2.43E−06 Molar | CC50 (HeLa): 4.06 µM

C/C=C1\NC(=O)[C@H](Cc2ccccc2)NC(=O)[C@@H](C(C)C)NC(=O)[C@@H]([C@@H](C)CC)NC(=O)[C@H](NC(=O)[C@H](NC(=O)[C@H](CCCN)NC(=O)[C@H]2CCCN2C(=O)[C@H](NC(=O)[C@@H](NC(=O)[C@@H](NC(=O)[C@@H](NC(=O)CCCC(C)C)C(C)C)[C@@H](C)O)C(C)C)C(C)C)[C@@H](C)CC)[C@@H](C)OC(=O)[C@H](C(C)C)NC1=O [Compound 38, [Val^13]-KF]
GI50 (DU-145): 1.66 µM | LC50 (concentration causing 50% net cell kill) (DU-145): 4.22 µM | TGI DU-145 (DU-145): 2.65E−06 Molar | GI50 (LoVo): 1.29 µM | TGI LOVO (LoVo): 2.40E−06 Molar | CC50 (LoVo): 4.47 µM | GI50 (IGROV-1): 1.01 µM | LC50 (concentration causing 50% net cell killing) (IGROV-1): 3.53 µM | TGI IGROV (IGROV-1): 1.89E−06 Molar | GI50 (IGROV-ET): 1.97 µM | TGI IGROV-ET (IGROV-ET): 2.97E−06 Molar | CC50 (IGROV-ET): 4.49 µM | TGI A-549 (A-549): 9.88E−07 Molar | GI50 (A-549): 0.307 µM | CC50 (A-549): 2.44 µM | GI50 (LoVo-Dox): 1.12 µM | TGI LOVO-DOX (LoVo-Dox): 1.94E−06 Molar | CC50 (LoVo-Dox): 3.36 µM | GI50 (K-562): 1.28 µM | TGI K-562 (K-562): 2.28E−06 Molar | CC50 (K-562): 4.05 µM | GI50 (HeLa-APL): 1.85 µM | TGI HELA-APL (HeLa-APL): 2.88E−06 Molar | CC50 (HeLa-APL): 4.49 µM | TGI HT-29 (HT-29): 2.12E−06 Molar | GI50 (HT-29): 1.16 µM | CC50 (HT-29): 3.88 µM | GI50 (PANC-1): 0.0254 µM | TGI PANC-1 (PANC-1): 1.20E−07 Molar | CC50 (PANC-1): 0.988 µM | GI50 (SK-MEL-28): 0.805 µM | TGI MEL-28 (SK-MEL-28): 1.68E−06 Molar | CC50 (SK-MEL-28): 3.55 µM | GI50 (HeLa): 0.046 µM | TGI HELA (HeLa): 1.55E−07 Molar | CC50 (HeLa): 0.583 µM

C/C=C1\NC(=O)[C@H](Cc2ccccc2)NC(=O)[C@@H](C(C)C)NC(=O)[C@@H]([C@@H](C)CC)NC(=O)[C@H](NC(=O)[C@H](NC(=O)[C@H](CCCN)NC(=O)[C@H]2CCCN2C(=O)[C@H](NC(=O)[C@@H](NC(=O)[C@@H](NC(=O)[C@@H](CCC(N)=O)NC(=O)CCCC(C)C)[C@@H](C)O)C(C)C)C(C)C)[C@@H](C)CC)[C@@H](C)OC(=O)[C@H](C(C)C)NC1=O [Compound 40, [D-Gln^13]-KF]
GI50 (DU-145): 1.79 µM | LC50 (concentration causing 50% net cell kill) (DU-145): 5.24 µM | TGI DU-145 (DU-145): 3.06E−06 Molar | GI50 (LoVo): 0.664 µM | TGI LOVO (LoVo): 1.41E−06 Molar | CC50 (LoVo): 2.98 µM | GI50 (IGROV-1): 1.04 µM | LC50 (concentration causing 50% net cell killing) (IGROV-1): 3.62 µM | TGI IGROV (IGROV-1): 1.94E−06 Molar | GI50 (IGROV-ET): 1.31 µM | TGI IGROV-ET (IGROV-ET): 2.24E−06 Molar | CC50 (IGROV-ET): 3.79 µM | TGI A-549 (A-549): 7.83E−07 Molar | GI50 (A-549): 0.318 µM | CC50 (A-549): 2.45 µM | GI50 (LoVo-Dox): 0.267 µM | TGI LOVO-DOX (LoVo-Dox): 8.23E−07 Molar | CC50 (LoVo-Dox): 2.23 µM | GI50 (K-562): 1.23 µM | TGI K-562 (K-562): 2.34E−06 Molar | CC50 (K-562): 4.42 µM | GI50 (HeLa-APL): 2.28 µM | TGI HELA-APL (HeLa-APL): 5.94E−06 Molar | CC50 (HeLa-APL): 6.64 µM | TGI HT-29 (HT-29): 1.87E−06 Molar | GI50 (HT-29): 0.949 µM | CC50 (HT-29): 3.69 µM | GI50 (PANC-1): 0.13 µM | TGI PANC-1 (PANC-1): 3.01E−07 Molar | CC50 (PANC-1): 0.863 µM | GI50 (SK-MEL-28): 1.22 µM | TGI MEL-28 (SK-MEL-28): 2.27E−06 Molar | CC50 (SK-MEL-28): 4.2 µM | GI50 (HeLa): 0.642 µM | TGI HELA (HeLa): 1.58E−06 Molar | CC50 (HeLa): 3.86 µM

C/C=C1\NC(=O)[C@H](Cc2ccccc2)NC(=O)[C@@H](C(C)C)NC(=O)[C@@H]([C@@H](C)CC)NC(=O)[C@H](NC(=O)[C@H](NC(=O)[C@H](CCCN)NC(=O)[C@H]2CCCN2C(=O)[C@H](NC(=O)[C@@H](NC(=O)[C@H](CC(C)C)NC(=O)CCCC(C)C)C(C)C)C(C)C)[C@@H](C)CC)[C@@H](C)OC(=O)[C@H](C(C)C)NC1=O [Compound 54, [Leu^12, noD-Val^13]-KF] ({Hexanoyl(5-Me)}-LV[dV][dP][Orn][d(aIle)][d(aThr)][d(aIle)][dV]F[Dhb]V; ester 7-C)
GI50 (DU-145): 1.49 µM | LC50 (concentration causing 50% net cell kill) (DU-145): 4.61 µM | TGI DU-145 (DU-145): 2.62E−06 Molar | GI50 (LoVo): 1.08 µM | TGI LOVO (LoVo): 2.14E−06 Molar | CC50 (LoVo): 4.21 µM | GI50 (IGROV-1): 1.11 µM | LC50 (concentration causing 50% net cell killing) (IGROV-1): 3.92 µM | TGI IGROV (IGROV-1): 2.09E−06 Molar | GI50 (IGROV-ET): 1.45 µM | TGI IGROV-ET (IGROV-ET): 2.57E−06 Molar | CC50 (IGROV-ET): 4.57 µM | TGI A-549 (A-549): 2.19E−06 Molar | GI50 (A-549): 1.14 µM | CC50 (A-549): 4.23 µM | GI50 (LoVo-Dox): 1.55 µM | TGI LOVO-DOX (LoVo-Dox): 2.88E−06 Molar | CC50 (LoVo-Dox): 5.37 µM | GI50 (K-562): 1.31 µM | TGI K-562 (K-562): 2.40E−06 Molar | CC50 (K-562): 4.41 µM | GI50 (HeLa-APL): 1.08 µM | TGI HELA-APL (HeLa-APL): 2.04E−06 Molar | CC50 (HeLa-APL): 3.88 µM | TGI HT-29 (HT-29): 3.51E−06 Molar | GI50 (HT-29): 1.88 µM | CC50 (HT-29): 6.55 µM | GI50 (PANC-1): 0.863 µM | TGI PANC-1 (PANC-1): 2.01E−06 Molar | CC50 (PANC-1): 4.68 µM | GI50 (SK-MEL-28): 1.24 µM | TGI MEL-28 (SK-MEL-28): 2.20E−06 Molar | CC50 (SK-MEL-28): 3.9 µM | GI50 (HeLa): 0.841 µM | TGI HELA (HeLa): 1.73E−06 Molar | CC50 (HeLa): 3.54 µM
